According to patent publication US6555134B1, “Synergistic mixtures of garlic and lycopene for preventing LDL oxidation” (Lycored Natural Products Industries Ltd., priority 1998, dated 2003):
Like-named read-outs stand apart in the source and are kept apart here. Marks after values point to notes of the source that are not given here.

Legend:
[1] = tested on: LDL; assay: copper ions-induced LDL oxidation (TBARS, lipids); type: biochemical, human; conditions: Experiment 1; lycopene 5 μg/ml
Procedure: LDL was separated from human plasma by discontinuous density gradient ultracentrifugation and dialyzed against saline: EDTA (1 mM). Before oxidation LDL was diluted in PBS to 100 ug protein/ml, and dialyzed overnight against PBS at 4° C. LDL was oxidized by a metal ion dependent mechanism, by incubation for 24 hours at 37° C. with 5 uM CuSO4 freshly prepared as well as by determination of the thiobarbituric acid reactive substance (TBARS). Lycopene, as well as tomato oleoresin containing 5% lycopene, were dissolved in tetrahydrofuran (THF), 0.5 mg/ml stock solution for pure lycopene, and 10 mg/ml stock solution for the oleoresin. Garlic powder was extracted with water, dried, and resolubilized in water at a concentration of 0.25 mg of allicin equivalentsml for a stock solution. The synergistic effects of a combination of garlic and lycopene on copper ions-induced LDL oxidation was studied. Details are shown in Table 1, affording the individual components of the Abbott Equation used to calculate synergism as follows: [formula] where A=Percent Control of garlic alone B=Percent Control of Lycopene alone where IF=Actual control in Percent IE=Expected control in Percent Following the method of Experiment 1, the synergistic effect of a combination of garlic and lycopene as in Experiment 1; but using tomato oleoresin was run.

[2] = tested on: blood lymphocytes; conditions: NO2 radical damage; cited from earlier work
[3] = tested on: Cultured rat hepatocytes; conditions: cited from earlier work
[4] = target: T1, fatty acid synthetase (Rattus norvegicus, UniProt P12785); conditions: at very high concentration; cited from earlier work
T1 construct: Cultured rat hepatocytes; host or cells: primary rat hepatocyte cultures
T1 sequence (P12785 whole entry): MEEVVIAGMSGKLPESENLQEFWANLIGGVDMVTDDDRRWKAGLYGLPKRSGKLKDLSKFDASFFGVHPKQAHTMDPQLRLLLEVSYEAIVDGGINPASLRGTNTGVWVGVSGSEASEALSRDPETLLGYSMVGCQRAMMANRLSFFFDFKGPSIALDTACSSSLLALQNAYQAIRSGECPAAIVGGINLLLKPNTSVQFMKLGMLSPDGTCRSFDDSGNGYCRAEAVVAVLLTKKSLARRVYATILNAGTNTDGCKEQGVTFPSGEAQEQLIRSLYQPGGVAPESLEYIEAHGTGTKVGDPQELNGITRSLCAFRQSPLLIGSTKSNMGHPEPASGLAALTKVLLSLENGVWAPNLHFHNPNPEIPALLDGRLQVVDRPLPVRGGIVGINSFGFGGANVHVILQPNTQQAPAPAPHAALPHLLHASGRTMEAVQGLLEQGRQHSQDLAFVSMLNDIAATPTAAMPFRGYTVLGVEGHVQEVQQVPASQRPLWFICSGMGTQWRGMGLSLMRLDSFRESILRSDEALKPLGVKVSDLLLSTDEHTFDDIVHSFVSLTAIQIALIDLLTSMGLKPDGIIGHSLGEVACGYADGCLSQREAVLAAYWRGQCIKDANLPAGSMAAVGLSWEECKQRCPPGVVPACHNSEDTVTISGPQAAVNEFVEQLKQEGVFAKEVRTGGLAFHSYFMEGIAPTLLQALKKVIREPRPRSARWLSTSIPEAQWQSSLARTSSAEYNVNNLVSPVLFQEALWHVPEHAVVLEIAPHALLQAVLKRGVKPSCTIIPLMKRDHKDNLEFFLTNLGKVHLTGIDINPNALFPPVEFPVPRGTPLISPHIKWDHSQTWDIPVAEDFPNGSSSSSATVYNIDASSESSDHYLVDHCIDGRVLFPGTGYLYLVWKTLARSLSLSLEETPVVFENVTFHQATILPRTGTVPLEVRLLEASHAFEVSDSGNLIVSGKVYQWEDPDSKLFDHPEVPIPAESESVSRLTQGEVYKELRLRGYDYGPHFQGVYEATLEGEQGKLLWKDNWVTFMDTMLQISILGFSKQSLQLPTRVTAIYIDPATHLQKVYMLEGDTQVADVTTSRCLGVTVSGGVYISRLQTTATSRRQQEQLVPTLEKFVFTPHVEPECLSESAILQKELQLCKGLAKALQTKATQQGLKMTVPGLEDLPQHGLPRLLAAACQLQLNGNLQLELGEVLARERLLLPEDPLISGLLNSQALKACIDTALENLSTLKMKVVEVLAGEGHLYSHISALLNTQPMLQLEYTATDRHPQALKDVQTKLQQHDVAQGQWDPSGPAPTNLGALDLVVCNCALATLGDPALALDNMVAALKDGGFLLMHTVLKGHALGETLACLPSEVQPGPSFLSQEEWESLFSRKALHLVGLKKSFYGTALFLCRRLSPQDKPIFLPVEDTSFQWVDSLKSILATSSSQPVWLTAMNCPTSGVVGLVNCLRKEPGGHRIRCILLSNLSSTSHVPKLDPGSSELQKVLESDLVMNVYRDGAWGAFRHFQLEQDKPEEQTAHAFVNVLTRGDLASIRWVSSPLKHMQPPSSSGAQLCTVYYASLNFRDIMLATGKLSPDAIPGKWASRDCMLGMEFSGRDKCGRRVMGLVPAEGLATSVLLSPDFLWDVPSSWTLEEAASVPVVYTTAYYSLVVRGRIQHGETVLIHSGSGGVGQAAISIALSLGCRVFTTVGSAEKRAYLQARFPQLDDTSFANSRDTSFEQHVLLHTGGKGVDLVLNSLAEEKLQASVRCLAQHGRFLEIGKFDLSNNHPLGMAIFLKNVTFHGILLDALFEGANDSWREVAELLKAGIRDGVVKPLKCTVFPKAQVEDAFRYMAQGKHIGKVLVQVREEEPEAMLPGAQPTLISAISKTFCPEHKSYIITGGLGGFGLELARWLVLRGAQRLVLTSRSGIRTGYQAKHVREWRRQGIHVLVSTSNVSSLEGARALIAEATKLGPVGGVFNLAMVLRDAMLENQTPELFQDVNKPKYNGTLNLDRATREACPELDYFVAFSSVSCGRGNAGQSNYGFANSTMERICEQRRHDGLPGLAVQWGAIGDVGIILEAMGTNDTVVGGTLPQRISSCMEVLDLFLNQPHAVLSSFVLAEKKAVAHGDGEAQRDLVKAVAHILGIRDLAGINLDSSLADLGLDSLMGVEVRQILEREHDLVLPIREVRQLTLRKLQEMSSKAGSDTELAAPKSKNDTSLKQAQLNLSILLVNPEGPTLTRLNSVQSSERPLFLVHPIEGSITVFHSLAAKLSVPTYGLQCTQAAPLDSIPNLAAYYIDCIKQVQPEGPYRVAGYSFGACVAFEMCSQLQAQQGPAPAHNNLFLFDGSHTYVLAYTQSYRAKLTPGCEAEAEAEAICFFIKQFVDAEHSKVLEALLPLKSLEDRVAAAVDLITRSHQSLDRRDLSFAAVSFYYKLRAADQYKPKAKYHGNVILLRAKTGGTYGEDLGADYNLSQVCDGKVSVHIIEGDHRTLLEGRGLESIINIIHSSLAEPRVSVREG

Question: Which “B = Percent Control of Lycopene alone” value [1] does the source give for `CC(C)=CCC/C(C)=C/C=C/C(C)=C/C=C/C(C)=C/C=C/C=C(C)/C=C/C=C(C)/C=C/C=C(\C)CCC=C(C)C` [Lycopene] here?
Answer: The value was 18^b Percent.

Question: And the “antioxidant effectiveness relative to β-carotene” value [2]?
Answer: Its value is “at least twice as effective”.

Question: For `CC[C@H](C)C(=O)O[C@H]1CCC=C2C=C[C@H](C)[C@H](CC[C@@H]3C[C@@H](O)CC(=O)O3)[C@H]21` [Mevastatin], which “inhibition of cholesterol biosynthesis” value ([3]; 24 h incubation, radiolabeled acetate) is on record?
Answer: The value was 90%.

Question: With `C=CCS[S+]([O-])CC=C` (centres unmarked) [allicin] as the compound, how does the “inhibition of cholesterol biosynthesis” value ([3]; concentration corresponding to its content in the extracts, before or after incubation with alliinase) read?
Answer: Its value is “does not exert any inhibition”.

Question: And the “inhibition of fatty acid synthetase” value [4]?
Answer: Its value is “inhibited”.
